“Also recorded” adds a separate entry of the source.
Assays:
growth plate cartilage = assay: Growth plate histology, resting and proliferating chondrocyte zone (R+P); assay type: in vivo, mice; conditions: four weeks
Experimental: Four weeks old mice (female, FVB) were injected with Dexa dissolved in saline ([…]) subcutaneously in the neck every day for four week. Whereas, HNG (S14G) dissolved in saline (1 μg/mice) was injected intra-peritoneally, 45 minutes prior to the Dexa injection for four weeks, for details see materials and methods. The femur and tibia bones were dissected out and fixed in 4% formalin for 24 hrs, followed by decalcification in 10% EDTA and embedded in paraffin blocks. Five-micrometer-thick sections were prepared from these paraffin blocks. The sections were prepared from the tibial growth plate and stained with Van Gieson. Digital images of stained sections were collected using a Nikon Eclipse E800 microscope (Nikon Corp., Tokyo, Japan) equipped with an Olympus DP70 digital camera (Olympus Sverige AB, Solna, Sweden).
Since a positive effect of HNG (S14G) on bone growth was identified, different zones of chondrocytes were analyzed (resting, proliferative and hypertrophic) in growth plate cartilage, to identify visible changes in these zones. […] These micropgraphas also explain the longitudinal bone growth promoting effects by HNG (S14G) alone or in combination with Dexa.

NMRI nude mice = assay: Bone growth (X-ray) in tumor-xenografted NMRI nude mice; assay type: in vivo; conditions: HNG 1 μg/mice i.p. + bortezomib 1 mg/kg i.p. days 1, 4, 8, 11, day 13
Experimental: Male NMRI nu/nu mice (B&K Scanbur, Sweden or Taconic, Denmark) were xenografted at the age of 4 weeks (BW 18-25 g). The mice were anesthetized with 2% fluothane (Zeneca Ltd, Macclesfield, UK) supplemented with 50% N2O in oxygen. Tumor cells (NB (SH-SY5Y; 20×10^6 cells/side) or MB (D-283; 10×10^6 cells/side) in 0.1 ml medium) were implanted s.c. in the hindlegs of the animal using a 23 G needle. Tumors were measured every other day with a digital caliper, starting when they were palpable. At a tumor volume of 0.1 ml or 0.15 ml the animals were randomized into groups (1. Vehicle without tumors; 2. Vehicle with tumors; 3. HNG (S14G; 1 μg/mice); 4. CT (bortezomib; 0.8 mg/kg or 1 mg/kg); 5. HNG (S14G) 1 μg/mice+CT (bortezomib; 0.8 mg/kg or 1 mg/kg), stratified by their bodyweight and treatment started. Treatment regime was the same as in clinical settings with 2 injections/week; 2 weeks treatment (see FIG. 1, Group 1). HNG (S14G) was injected 40 min before the CT (bortezomib) injection. Tumor volume was calculated by the formula 0.44×length×width×width (Wassberg, Pahlman et al. 1997). […] The animal weight and general appearance were recorded every day throughout the experiments. […] After fixation, femur and tibia were measured with digital calipers and decalcified in 5% EDTA and then paraffin embedded. […]

[1] = tested on: fetal rat metatarsal bones; assay: Longitudinal growth of cultured fetal rat metatarsal bones; assay type: cell-based
Experimental: The three middle metatarsal bone rudiments were dissected out from the paws of 20-day-old embryos (E20) (De Luca, Barnes et al. 2001). After dissection, bones were transferred to 24-well plates, one bone per well and cultured in 0.5 ml phenol-red MEM medium supplemented with 0.2% endotoxin-free fraction BSA, […] β-glycerophosphate, 0.05 mg/ml ascorbic acid and 100 μg/ml penicillin/streptomycin at 37° C. under 5% CO2 in humidified atmosphere. Medium was changed every 2-3 days. Images were captured at days 0, 2, 5, 7, 9 and 12 of culture, using a Hamamatsu C4742-95 digital camera mounted on a Nikon SMZ-U microscope. The Image-Pro plus™ (Media Cybernetics, USA) software was used to measure longitudinal growth. Metatarsal bone growth is expressed as a percentage of the length at the day of dissection (regarded as day 0). Treatment with CT (bortezomib), dexamethasone and/or HNG (S14G) was started 2-4 hours after dissection. All isolated bones were pooled and then randomly divided into the different treatment groups (4 to 6 bones per group). Each experiment was repeated at least 3 times.
The data shown in FIG. 2A indicates novel growth promoting/protective effects of humanin analog HNG (S14G) on longitudinal bone growth in cultured fetal rat metatarsal bones. […] Briefly, fetal rat metatarsal bones were pre-treated with different concentrations (mentioned in the figure) of HNG (S14G), 30 min prior to addition of Dexa. […] (n=4-6 bones/group)
CT (bortezomib) is a cytotoxic drug known to cause critical alterations in cells/tissues and disturb the cellular homeostasis. To test the effect of CT (bortezomib) on chondocytes and longitudinal bone growth, the established in vitro model of fetal rat metatarsal bones was used. These bones were collected as described in material and methods, cultured and treated with different concentrations of CT (bortezomib) under sterile conditions for up to 12 days. […] Apoptosis was analyzed in whole growth plate sections of 12-day cultured rat metatarsal bones (perichondrium excluded) by applying the TUNEL technique to detect DNA fragmentation.
In an attempt to block and prevent the negative effects on growth after CT (bortezomib)-treatment, recently discovered humanin analog HNG (S14G) was tested in vitro in fetal rat metatarsal bones.

## S14G-HN (MAPRGFSCLLLLTGEIDLPVKRRA) [HNG (S14G)]
Growth plate cartilage; HNG (S14G)/Dexa, vs Dexa only
  size of resting and proliferating chondrocyte zone (R+P): larger than in the Dexa only treated group
Growth plate cartilage; HNG alone 1 μg/mice, vs all other groups
  size of resting and proliferating chondrocyte zone (R+P): appears to be larger
NMRI nude mice; medulloblastoma xenograft
  rescue of bortezomib-induced impairment of linear bone growth: able to rescue and prevent the undesired side effects of CT (bortezomib) on linear bone growth
NMRI nude mice; neuroblastoma xenograft
  rescue of bortezomib-induced impairment of linear bone growth: able to rescue and prevent the undesired side effects of CT (bortezomib) on linear bone growth
[1]; HNG alone, 100 nM, day 12, vs control
  bone growth by itself: improved bone growth by itself; also recorded: trend to promote bone growth on its own
[1]; HNG in combination with 25 nM bortezomib, p<0.001
  rescue of the growth of bones: up to 50%
[1]; HNG with bortezomib 50 nM and above
  rescue of growth impairment: not able to rescue the growth impairment
[1]; different doses of HNG added 30 min prior to Dexa 1 μM
  rescue from Dexa-induced growth retardation: significantly rescued the bones from Dexa-induced growth retardation

Reference: US20130053323A1, “METHODS AND USE RELATED TO HUMANIN AND HUMANIN-LIKE PEPTIDES” (priority 2009, published 2013)
